US5159081A, “Intermediates of peripherally selective N-carbonyl-3,4,4-trisubstituted piperidine opioid antagonists” (Eli Lilly and Company, priority 1991, dated 1992)
Where two headings read alike, the source gives them in different places.

Experiments:
[1] = target: peripheral opioid receptors (Mus musculus, UniProt P42866); experiment: mouse diarrhea test: precipitated diarrhea in morphine-maintained mice (peripheral opioid activity); format: in vivo; settings: mouse diarrhea test, morphine-maintained mice, subcutaneous or oral, 30 min observation
peripheral opioid receptors (Mus musculus, UniProt P42866), sequence (P42866 whole entry): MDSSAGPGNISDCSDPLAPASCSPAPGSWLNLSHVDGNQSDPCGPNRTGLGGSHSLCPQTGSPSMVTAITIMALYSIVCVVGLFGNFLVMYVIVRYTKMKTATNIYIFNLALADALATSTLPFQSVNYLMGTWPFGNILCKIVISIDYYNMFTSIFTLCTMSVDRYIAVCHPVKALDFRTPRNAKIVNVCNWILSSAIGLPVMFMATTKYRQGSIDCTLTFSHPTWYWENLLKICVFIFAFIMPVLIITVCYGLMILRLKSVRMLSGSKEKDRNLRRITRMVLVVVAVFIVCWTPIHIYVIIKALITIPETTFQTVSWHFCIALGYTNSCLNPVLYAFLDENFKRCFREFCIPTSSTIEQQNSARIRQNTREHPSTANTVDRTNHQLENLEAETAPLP

[2] = tested on: peripheral opioid receptors; experiment: as above; format: in vivo
opioid receptor = target: T1, opioid receptor (Mus musculus, UniProt P42866); experiment: in vivo; design: species or system CF-1 male mice; settings: sc, mouse writhing test, s.c. 20 min before acetic acid, read-out: AD50 (the source's name)
T1 construct: Five CF-1 male mice (Charles River, Portage, MI); from tissue; host or cells: living CF-1 male mice (whole animal, endogenous receptor)
T1 sequence (P42866 whole entry): as above

mu receptor = target: T2, mu receptor (Rattus norvegicus, UniProt P33535); experiment: Naloxone [3H] opioid receptor binding assay (mu receptor); design: species or system rat (male Sprague Dawley); settings: 20 min; for Ki: rat whole brain minus cerebellum, pH 7.4, 37° C., read-out: Ki
T2 construct: The brain tissue, rat whole brain minus cerebellum for mu was homogenized; from tissue; host or cells: brain minus cerebellum of male Sprague Dawley rats, homogenate fraction
T2 sequence (P33535 whole entry): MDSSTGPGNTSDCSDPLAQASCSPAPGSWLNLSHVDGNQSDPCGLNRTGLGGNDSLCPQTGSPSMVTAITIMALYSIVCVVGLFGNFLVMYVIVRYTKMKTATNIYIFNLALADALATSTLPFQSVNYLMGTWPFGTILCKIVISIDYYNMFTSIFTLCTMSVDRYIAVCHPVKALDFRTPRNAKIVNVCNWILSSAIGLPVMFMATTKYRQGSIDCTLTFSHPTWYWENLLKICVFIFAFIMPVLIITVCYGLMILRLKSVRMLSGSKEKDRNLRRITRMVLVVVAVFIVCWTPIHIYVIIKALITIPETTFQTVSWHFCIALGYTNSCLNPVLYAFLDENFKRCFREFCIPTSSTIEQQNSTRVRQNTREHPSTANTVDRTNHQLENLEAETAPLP

[3] = pH 7.4, read-out: % displacement at 10 nM
[4] = pH 7.4, read-out: % displacement at 100 nM
[5] = AD50 mouse writhing / ED50 mouse diarrhea, higher = greater relative peripheral antagonism
[6] = pH 7.4, 10 nM test compound, [3H]naloxone 0.5 nM, mu receptor, read-out: % displacement at 10 nM
[7] = pH 7.4, 100 nM test compound, [3H]naloxone 0.5 nM, mu receptor, read-out: % displacement at 100 nM

| SMILES | ED50 [1] | Ratio (ratio of AD50 to ED50) ([2]; mouse, in vivo) | ED50 (opioid receptor; […]) | inhibition at 0.01 µM (mu receptor; [3]) | inhibition at 0.1 µM (mu receptor; [4]) | Ki (mu receptor; [3H]naloxone 0.5 nM) | ED50 ([1]; 0.5 h, read-out: ED50) | Ratio (ratio of AD50 to ED50) [2, 5] | inhibition at 0.01 µM (mu receptor; [6]) | inhibition at 0.1 µM (mu receptor; [7]) | ED50 (opioid receptor; dose of antagonist that reduced inhibition of writhing by 1.25 mg/kg morphine sulfate to 50%) |
| --- | --- | --- | --- | --- | --- | --- | --- | --- | --- | --- | --- |
| C[C@H]1CN(CC(Cc2ccccc2)NC(=O)CCCC(=O)O)CC[C@@]1(C)c1cccc(O)c1 (relative stereo) [Example 15, Trans-5-((2-(4-(3-hydroxyphenyl)-3,4-dimethyl-1-piperidinyl)-1-(D-(phenylmethyl)ethyl)amino))-5-oxopentanoic acid monohydrate] | 0.028 mg/kg | 50 | 1.39 mg/kg | 80% | 99% | 2.96 nM |  |  |  |  |  |
| C[C@H]1CN(CCN(C(=O)CCC(=O)O)c2ccccc2)CC[C@@]1(C)c1cccc(O)c1 (relative stereo) [Example 19, 4-((2-(Trans-4-(3-hydroxyphenyl)-3,4-dimethyl-1-piperidinyl)ethyl)phenylamino-4-oxobutanoic acid monohydrate] |  |  | 6.3 mg/kg |  |  |  | 0.082 mg/kg | 77 | 48% | 92% |  |
| C[C@H]1CN(CCN(C(=O)CC(=O)O)C2CCCCC2)CC[C@@]1(C)c1cccc(O)c1 (relative stereo) [Example 21, 3-(cyclohexyl-(2-(trans-4-(3-hydroxyphenyl)-3,4-dimethyl-1-piperidinyl)ethyl)amino)-3-oxopropanoic acid monohydrate] |  |  | 17.1 mg/kg |  |  |  | 0.073 mg/kg | 71 | 53% | 80% |  |
| C[C@H]1CN(CCN(C(=O)CCC(=O)O)C2CCCC2)CC[C@@]1(C)c1cccc(O)c1 (relative stereo) [Example 24, 4-(cyclopentyl-2-(trans-4-(3-hydroxyphenyl)-3,4-dimethyl-1-piperidinyl)ethyl)amino)-4-oxobutanoic acid hemihydrate] |  |  | 19.2 mg/kg |  |  |  | 0.62 mg/kg | 31 | 48% | 89% |  |
| CC(C)CCN(CCN1CC[C@@](C)(c2cccc(O)c2)[C@@H](C)C1)C(=O)CCC(=O)O (relative stereo) [Example 28, 4-(3-methylbutyl-(2-(trans-4-(3-hydroxyphenyl)-3,4-dimethyl-1-piperidinyl)ethyl)amino)-4-oxobutanoic acid monohydrate] |  |  |  |  |  |  | 0.1 mg/kg | > 12 | 67% | 100% | > 1.25 mg/kg |
| CC(C)CN(CCCN1CC[C@@](C)(c2cccc(O)c2)[C@@H](C)C1)C(=O)CCCC(=O)O (relative stereo) [Example 29, 5-(2-Methylpropyl-(3-(trans-4-(3-hydroxyphenyl)-3,4-dimethyl-1-piperidinyl)propyl)amino)-5-oxopentanoic acid monohydrate] |  |  | 7.6 mg/kg |  |  |  | 0.99 mg/kg | 7.7 | 56% | 88% |  |
| C[C@H]1CN(CC(Cc2ccccc2)NC(=O)CCC(=O)O)CC[C@@]1(C)c1cccc(O)c1 (stereo partly shown) [Example 14] |  |  | 21 mg/kg | 20% | 64% | 32.4 nM |  | 656 |  |  |  |
| COC(=O)[C@H](Cc1ccccc1)NC(=O)CCC(=O)N(CCN1CCC(C)(c2cccc(O)c2)C(C)C1)C1CCCCC1 (stereo partly drawn) [Example 41, 2-((1,4-dioxo-4-(cyclohexyl-(2-(trans-4-(3-hydroxyphenyl)-3,4-dimethyl-1-piperidinyl)ethyl)amino)butyl)-amino)-3-phenylpropanoic acid, methyl ester] |  |  | 32 mg/kg | 87% | 99% | 2.45 nM |  | 74 |  |  |  |
| COC(=O)CCCC(=O)N[C@@H](CC1CCCCC1)CN1CC[C@](C)(c2cccc(O)c2)[C@H](C)C1 [Example 49] | > 10 mg/kg |  | 9.9 mg/kg | 83% | 97% | 8.19 nM |  |  |  |  |  |
